Tested on: C57BL/6 male mice
Assay: In vivo delivery study of lipid nucleic acid mixture (oral gavage, RT-qPCR of PGY-sRNA-26 in tissues)
Design: species or system mouse
Details: for oral delivery of single-stranded sRNA nucleic acids into mouse blood / oral delivery of single-stranded sRNA nucleic acids into mouse brain tissue / oral delivery of single-stranded sRNA nucleic acids into mouse femur / oral delivery of single-stranded sRNA nucleic acids into mouse heart tissue / oral delivery of single-stranded sRNA nucleic acids into mouse intestinal tissue / oral delivery of single-stranded sRNA nucleic acids into mouse liver tissue / oral delivery of single-stranded sRNA nucleic acids into mouse lung tissue / oral delivery of single-stranded sRNA nucleic acids into mouse stomach tissue / oral delivery of single-stranded sRNA nucleic acids into mouse kidney tissue / oral delivery of single-stranded sRNA nucleic acids into mouse spleen tissue / oral delivery of single-stranded sRNA nucleic acids into mouse pancreatic tissue: 100 μg lipid:10 nmol PGY-sRNA-26, sampled after 12 hours; for oral delivery of single-stranded sRNA nucleic acids into mouse heart tissue: vs free uptake group; for oral delivery of single-stranded sRNA nucleic acids into mouse intestinal tissue: intestine; for overall delivery efficacy: delivering nucleic acids into each tissue and blood tested: 100 μg lipid:10 nmol PGY-sRNA-26, all tissues and blood tested; for oral delivery of single-stranded sRNA nucleic acids into mouse pancreatic tissue: pancreas
In short: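 Stem-loop RT and SYBR qPCR, normalized to U6, measured PGY-sRNA-26 in blood and organs 12 h after gavage. Dosing was 10 nmol sRNA with 100 μg lipid, pre-mixed and heated 15 min at 90 °C, in 12-h-fasted mice, against saline and free-sRNA groups.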

SMILES | oral delivery of single-stranded sRNA nucleic acids into mouse blood | oral delivery of single-stranded sRNA nucleic acids into mouse brain tissue | oral delivery of single-stranded sRNA nucleic acids into mouse femur | oral delivery of single-stranded sRNA nucleic acids into mouse heart tissue | oral delivery of single-stranded sRNA nucleic acids into mouse intestinal tissue | oral delivery of single-stranded sRNA nucleic acids into mouse liver tissue | oral delivery of single-stranded sRNA nucleic acids into mouse lung tissue | oral delivery of single-stranded sRNA nucleic acids into mouse stomach tissue | overall delivery efficacy: delivering nucleic acids into each tissue and blood tested | oral delivery of single-stranded sRNA nucleic acids into mouse kidney tissue | oral delivery of single-stranded sRNA nucleic acids into mouse spleen tissue | oral delivery of single-stranded sRNA nucleic acids into mouse pancreatic tissue
CC=CC(C)=O [Lipid 621] | can effectively orally deliver | can effectively orally deliver | can effectively orally deliver | can effectively orally deliver | can effectively orally deliver | can effectively orally deliver | can effectively orally deliver | can effectively orally deliver |  |  |  | 
CCCCCCCCCCCCCCCC=O [Lipid 602] | can effectively orally deliver | can effectively orally deliver | can effectively orally deliver | can effectively orally deliver | can effectively orally deliver | can effectively orally deliver | can effectively orally deliver | can effectively orally deliver | best delivery efficacy | can effectively orally deliver | can effectively orally deliver | 
CCCCC/C=C\C/C=C\CCCCCCCCOC(=O)CCCCCCCCCCCCCCCCCCC [Lipid 812, [(9Z,12Z)-octadeca-9,12-dienyl] icosanoate] | can effectively orally deliver | can effectively orally deliver | can effectively orally deliver | can effectively orally deliver | can effectively orally deliver | can effectively orally deliver | can effectively orally deliver | can effectively orally deliver |  | can effectively orally deliver | can effectively orally deliver | can effectively orally deliver
C/C(=C\C(=O)O)C(=O)O [Lipid 606, (E)-2-methylbut-2-enedioic acid] | can effectively orally deliver |  | can effectively orally deliver |  |  | can effectively orally deliver |  |  |  |  |  | 
CC(C(=O)O)C(=O)O [Lipid 596, 2-methylpropanedioic acid] | can effectively orally deliver | can effectively orally deliver | can effectively orally deliver | can effectively orally deliver | can effectively orally deliver | can effectively orally deliver | can effectively orally deliver | can effectively orally deliver | best delivery efficacy | can effectively orally deliver | can effectively orally deliver | 
CCCCCCCCCCCCCCCCCC(=O)N[C@@H](Cc1ccccc1)C(=O)O [Lipid 830, (2S)-2-(octadecanoylamino)-3-phenylpropanoic acid] | can effectively orally deliver | can effectively orally deliver | can effectively orally deliver | can effectively orally deliver | can effectively orally deliver | can effectively orally deliver | can effectively orally deliver | can effectively orally deliver |  | can effectively orally deliver | can effectively orally deliver | can effectively orally deliver
CC/C=C\CCOC(=O)[C@H](O)C(C)C [Lipid 816, [(Z)-hex-3-enyl] (2R)-2-hydroxy-3-methylbutanoate] | can effectively orally deliver | can effectively orally deliver | can effectively orally deliver | can effectively orally deliver | can effectively orally deliver | can effectively orally deliver | can effectively orally deliver | can effectively orally deliver |  | can effectively orally deliver | can effectively orally deliver | can effectively orally deliver
CCCCCC/C=C\CCCCCCCC(=O)OCCCCCCCCCCCCCCCCCCCCCC [Lipid 823, docosyl (Z)-hexadec-9-enoate] | can effectively orally deliver | can effectively orally deliver | can effectively orally deliver | can effectively orally deliver | can effectively orally deliver | can effectively orally deliver | can effectively orally deliver | can effectively orally deliver |  | can effectively orally deliver | can effectively orally deliver | can effectively orally deliver
CCCCCCC(=O)OC/C=C(\C)CC/C=C(\C)CCC=C(C)C [Lipid 809, [(2E,6E)-3,7,11-trimethyldodeca-2,6,10-trienyl]heptanoate] | can effectively orally deliver | can effectively orally deliver | can effectively orally deliver | can effectively orally deliver | can effectively orally deliver | can effectively orally deliver | can effectively orally deliver | can effectively orally deliver |  | can effectively orally deliver | can effectively orally deliver | can effectively orally deliver
CCCCC/C=C\C/C=C\C/C=C\C/C=C\CCCC(=O)O [Lipid 620, (5Z,8Z,11Z,14Z)-icosa-5,8,11,14-tetraenoic acid] |  | can effectively orally deliver | can effectively orally deliver | can effectively orally deliver | can effectively orally deliver | can effectively orally deliver | can effectively orally deliver | can effectively orally deliver |  | can effectively orally deliver | can effectively orally deliver | 

— patent US20250073255A1, “USE OF FA-TYPE LIPID COMPOUNDS IN PREPARATION OF NUCLEIC ACID DELIVERY REAGENT AND RELATED PRODUCT” (BEIJING BAISHIKANG PHARMACEUTICAL TECHNOLOGY (BSJPHARMA) …, priority 2021, published 2025)
